System: Caenorhabditis elegans expressing 110Q::TdTomato in mechanosensory neurons
Experiment: Gentle touch sensitivity in C. elegans' Huntington's disease model expressing 110Q::TdTomato
Format: in vivo
Conditions: 110Q::TdTomato animals without metal complex (II)
Description: The study was conducted to assess whether administration of metal complex (II) improves the neurosensitivity (gentle touch sensitivity) in Caenorhabditis elegans' (C. elegans) Huntington's disease model.
The initial and most generally used method to test for gentle touch sensitivity is to stroke animals with an eyebrow hair that has been glued to the end of a toothpick (FIG. 4).
C. elegans expressing 110CAG fused in frame with TdTomato in mechanosensory neurons aggregate and induced neural impairment were used. […] The tissue in light grey is the marker for transgenesis (i.e. green fluorescent protein (GFP) expressed in the pharynx).
The test was carried out using non-treated animals (expressing 110Q::TdTomato and thus showing neuronal impairment) as a control C, and animals treated with Metformin at 2 mM were used as a positive control. Each test was carried out treating animals (expressing 110Q::TdTomato showing neuronal impairment) with 5, 10 and 20 μM concentrations of metal complex (II), using non-treated animals as a control and animals treated with Metformin at a concentration of 2 mM as a positive control.
Finally, it was tested whether the rescue of the neuronal impairment due to 110Q::TdTomato expression shown with the treatment of metal complex (II) is produced by activation of autophagy. […]

SMILES: CCN(CC)CCCC(C)Nc1ccnc2cc(Cl)ccc12 (stereo not shown) [Chloroquine, reference compound]
- % of individuals showing touch response, chloroquine alone: does not induce additional touch response impairment
